Among the data in the METLIN SMRT retention time set (Domingo-Almenara et al. 2019) are RP-LC retention time values, retold here.

This data set in a line: gradient 5% acetonitrile 3 min, to 50% in 2 min, to 85% in 15 min, held 3 min, 100 µL/min. The following applies: column: Zorbax Extend-C18 2.1 x 50 mm; eluents: water / acetonitrile, 0.1% formic acid. The method, boiled down:
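Mixtures of ~100 pure standards were chromatographed on a Zorbax Extend-C18 column (2.1 × 50 mm, 1.8 μm) at 100 μL/min using water and acetonitrile, each with 0.1% formic acid. Detection used a quadrupole time-of-flight mass spectrometer in positive and negative ionization mode, and data collection spanned 3 months. Retention time was obtained from adduct peaks picked computationally and each checked manually.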
The compound `Cc1nn(C)c(C)c1CCC(=O)NCCn1c(C)cnc1C1CCC1` returned an RP-LC retention time of 547 s. Compound `COc1ccc(CNC2=NCCNC23CCN(S(=O)(=O)c2ccc(CC(C)C)cc2)CC3)cc1` registered an RP-LC retention time of 878 s. The figure for `CCOC(=O)C(C)NC(=O)N1CCCN(C2=NS(=O)(=O)C(c3ccccc3)=C2C)CC1` (stereo not drawn) is 761 s. Take `O=c1c2ccccc2c(-c2nc(-c3cccnc3)no2)nn1-c1ccc(F)cc1`: the RP-LC retention time is 998 s.

`Cn1cccc1CN(Cc1cccs1)C(=O)Cn1c(=O)oc2ccccc21` showed an RP-LC retention time of 899 s. Under `CCN(CCN(C)C)c1ccc(C(=O)O)cc1NS(=O)(=O)c1ccc(F)cc1` stands 613 s. Under `CCS(=O)(=O)N1CC(=O)N(c2ccc(F)cc2C)C(C)(C(=O)NC2CCCCC2)C1` (stereo not drawn) stands 919 s; under `Cc1ccc(C)c(Cn2nc3ccc(S(=O)(=O)N4CCSCC4)cn3c2=O)c1`, 996 s; under `CCCNc1cc(N2CCCC(CCC(=O)Nc3ccc(OCC)cc3)C2)ncn1` (stereo not drawn), 728 s.

As to `O=C(N[C@@H]1CN(c2ncccn2)C[C@H]1CO)c1ccc2ccccc2n1`, the RP-LC retention time was 654 s. As to `COc1ccc(NC(=O)CSc2nnc3c4sc(N5CCCC5)nc4ncn23)cc1Cl`, the RP-LC retention time is 798 s. The figure for `CCc1nn2c(CNS(=O)(=O)c3ccccc3F)c(-c3ccccc3)nc2s1` is 907 s. For the compound `CN(Cc1ccccc1)C(=O)c1cn(-c2cc(-c3nc(C(C)(C)C)no3)ccn2)cn1`, the RP-LC retention time was determined as 1050 s. The figure for `Cc1ccc(-c2nc3ncccn3c2Nc2ccc(C)cc2C)cc1` is 838 s; for `CCCCn1c(=O)c2ccccc2n(Cc2nc(-c3ccc(F)c(Cl)c3)no2)c1=O` it is 1290 s; for `C[C@H]1CN(C(=O)c2c(F)cccc2F)C[C@@H]1c1nc(-c2ccncc2)no1` it is 798 s.

`Cc1ccc2nc(-c3cccc(Cl)c3)c(Nc3ccc4c(c3)OCCO4)n2c1` displayed an RP-LC retention time of 724 s. Compound `O=C(Cn1nc(N2CCOCC2)c2ccccc2c1=O)Nc1ccc(Br)cc1` showed an RP-LC retention time of 864 s. Under `COC(=O)CCNC(=O)C1c2ccccc2C(=O)N(Cc2ccccc2)C12CCCC2` (stereo not drawn) stands 840 s; under `O=C(Nc1ccc2ccccc2c1)N1CCN(c2ncc(C(F)(F)F)cc2Cl)CC1`, 1110 s. The figure for `CCCN1CCN(C(=O)c2cn3ccnc(-c4ccccc4)c3n2)CC1` is 706 s; for `O=C(CCn1cnc2cc(-c3noc(-c4cccc(Cl)c4)n3)ccc21)N1CCOCC1` it is 754 s. Under `COc1ccccc1NC(=O)CSc1nnc2c3cc(-c4ccc(F)cc4)nn3ccn12` stands 897 s. As for `O=C(CCC1CCCN(S(=O)(=O)c2ccccc2F)C1)NC1CCCCC1` (stereo not drawn), the RP-LC retention time is 952 s. Under `C=CCN1N=C(C(=O)N2CCC(C)CC2)S(=O)(=O)c2ccc(Cl)cc21` stands 997 s. The figure for `CN(C)c1ccc(CCNC(=O)c2cccc(C(F)(F)F)c2)cc1` is 621 s; for `C=CCn1c(C)c(CC(=O)NCC(C)C)c(=O)n2nc(-c3ccc(C)cc3)nc12` it is 840 s.

With `CC(C)(C)c1ccc(CN2CCC(OC3CCN(C4CCCC4)C3=O)CC2)cc1` (stereo not drawn), the RP-LC retention time is 758 s. As to `Cc1ccc(CNC(=O)C2(C)CCCN(C(=O)Nc3ccc(C)c(Cl)c3)C2)cc1` (stereo not drawn), the RP-LC retention time was determined as 1110 s. Under `CC1=NS(=O)(=O)N(Cc2ccccc2)C=C1C(=O)OCc1ccccc1` stands 1090 s; under `CN(C)c1cccc(C(=O)Nc2cc(-c3cccs3)no2)c1`, 970 s. The figure for `Cc1cc(C)cc(NC(=O)C2CCN(C(=O)c3ncn4c3COC(c3ccc(F)cc3)C4)CC2)c1` (stereo not drawn) is 816 s; for `O=S(=O)(c1ccccc1Cl)N1CCC(c2noc(COCc3ccccc3)n2)CC1` it is 1100 s. `CCN(CC)C(=O)c1ccc(-c2nc3cc(NS(=O)(=O)c4ccc(C)c(C)c4)ccc3n2C)cc1`: the RP-LC retention time came out at 726 s. Under `O=S(=O)(Cc1ccccc1)N1CC(n2cc(COc3ccc(F)cc3)nn2)C1` stands 899 s.

The compound `CCOC(=O)C1=CN(Cc2ccccc2)S(=O)(=O)N=C1C` registered an RP-LC retention time of 970 s. Under `CCn1nc(C)n2cc(S(=O)(=O)NC(C)c3ccccc3)cc2c1=O` (stereo not drawn) stands 882 s; under `CN1CCN(S(=O)(=O)c2cccc(-c3nc(-c4ccccc4)no3)c2)CC1`, 694 s; under `CCCn1nc(C)cc1CN(C)C(=O)Cn1nc2n(c1=O)CCC(N)CC2` (stereo not drawn), 561 s. The figure for `COc1ccc(CNC(=O)N2CCC(n3c(-c4ccco4)nc4cccnc43)C2)cc1` (stereo not drawn) is 759 s; for `CCN(C(=O)c1ccccc1C)c1nc(-c2ccccc2)cs1` it is 1260 s; for `COc1ccc(CNc2ccc(S(=O)(=O)C(C)(C)C)nn2)cc1OC` it is 711 s.

Regarding `CCc1ccc(NC(=O)c2cn(CC)nc2S(=O)(=O)N2CCSCC2)cc1`, the RP-LC retention time is 1100 s. `CCN1CCN(CCNC(=O)c2ccc(CS(=O)c3cccc(Cl)c3)o2)CC1` (stereo not drawn) showed an RP-LC retention time of 576 s.

The compound `CC1CCN(S(=O)(=O)c2cccc(-c3nnc(-c4ccc(F)cc4)o3)c2)CC1` displayed an RP-LC retention time of 1150 s. Under `CC(C)N(C(=O)CSc1nc2ccccc2[nH]1)c1ccccc1` stands 650 s; under `COc1cc(F)ccc1-c1ccnc2nc(C3CCC3)nn12`, 864 s; under `Clc1ccc(N2CCN(Cc3cc4ccccn4n3)CC2)cc1`, 754 s.

On to `CC(C)CC(=O)N1CC[C@@H]2COCCN(C)[C@@H]2C1`, for which the RP-LC retention time amounted to 575 s.

In turn, `CSc1ccc(-c2noc(Cc3nnc(-c4cc(F)cc(F)c4)o3)n2)cc1` showed an RP-LC retention time of 1100 s.

Compound `CCN(CC)CCOc1ccccc1/C=C/c1noc2ccccc12` displayed an RP-LC retention time of 724 s. `CCOc1ccc(NC(=O)N2CCCC(C)(C(=O)NCc3ccccc3C)C2)cc1` (stereo not drawn) had an RP-LC retention time of 855 s. Under `CC(=O)N1CCc2cc(N3CC(C(=O)Nc4ccc(F)c(Cl)c4)CC3=O)ccc21` (stereo not drawn) stands 751 s; under `COc1ccc(NC(=O)C2=C(C)C(=O)OC23CCCCCC3)cc1OC`, 887 s. Under `Cc1nn(-c2ccccc2)c(C)c1S(=O)(=O)N1CCC(C(=O)Nc2ccccc2F)CC1` stands 950 s; under `COc1ccccc1-c1noc(CN2C(=O)COc3ccccc32)n1`, 880 s; under `CC(=O)Nc1ccc(SCc2ccccn2)nn1`, 527 s.

`CCOC(=O)c1cccc(NC(=O)C2CCCN(c3nnc(C)c4c(C)n(-c5ccccc5)nc34)C2)c1` (stereo not drawn) registered an RP-LC retention time of 797 s. Under `Cc1ccc(C)c(N2CCN(c3ccnc(SCC(=O)Nc4cccc(Cl)c4F)n3)CC2)c1` stands 1230 s.

On to `Cc1ccc(Nc2nc(-c3cc(C)ccc3C)cs2)nc1`, for which the RP-LC retention time came to 902 s. For the compound `CCCCNC(=O)c1c(C)c2c(=O)n(CC(=O)Nc3ccc(Br)cc3)ncn2c1C`, the RP-LC retention time came out at 826 s. The compound `Cc1ccc(S(=O)(=O)CCc2noc(C(=O)NCCCN3CCCC(C)C3)n2)cc1` (stereo not drawn) had an RP-LC retention time of 632 s. The figure for `CCc1nnc([C@@H]2CC(F)(F)CN2C(=O)Cn2nc(C)cc2C)o1` is 612 s; for `CN(CCCNC(=O)C1CCCN(c2ncc(-c3ccccc3)cn2)C1)c1ccccc1` (stereo not drawn) it is 826 s; for `CN(C)c1cc2c(Nc3ccc4c(cnn4Cc4ccccc4)c3)ncnc2cn1` it is 820 s. With `CCOCCCNC(=O)CCc1cc2cc(OC)ccc2[nH]c1=O`, the RP-LC retention time is 615 s.

`O=C(CN1CCN(Cc2cccc(Cl)c2)C1=O)NCc1ccc(N2CCOCC2)cc1` had an RP-LC retention time of 736 s.

For the compound `CC1CN(c2nc(-c3ccc([N+](=O)[O-])cc3)nc3ccccc23)CC(C)O1` (stereo not drawn), the RP-LC retention time stood at 1030 s.

Regarding `CCN1CCN(c2cc(-c3nc(-c4ccc(Cl)cc4)no3)c3ccccc3n2)CC1`, the RP-LC retention time came out at 911 s.

With `Cc1ccnc(Nc2nc(-c3ccc(F)c(C)c3)cs2)c1`, the RP-LC retention time came to 906 s. The figure for `CCn1c(C(=O)NCCCN2CCCC(C)C2)c(N2CCCC2=O)c2cc(OC)ccc21` (stereo not drawn) is 666 s.

Take `CCNC(=O)c1cn(-c2ccc(NC(=O)CC(C)C)cn2)cn1`: the RP-LC retention time was determined as 658 s. Under `Cc1cc(C)cc(NC(=O)N2CCCC(C)(C(=O)NCc3ccccc3)C2)c1` (stereo not drawn) stands 959 s. Under `COc1ccc(S(=O)Cc2ccc(C(=O)NCCCN3CCc4ccccc4C3)o2)cc1` (stereo not drawn) stands 619 s; under `CCc1ccccc1NC(=O)Cn1ncc2c(c1=O)N(C1CC1)C(=O)CS2`, 718 s. `CN1CCN(C(=O)C(=O)Nc2c3c(nn2-c2ccc(Cl)cc2)CSC3)CC1` returned an RP-LC retention time of 634 s. For the compound `O=C(Cc1c[nH]c2ccccc12)N1CCN(C(=O)c2cc(-c3cccnc3)n[nH]2)CC1`, the RP-LC retention time came to 610 s. The figure for `O=C(Nc1cccc(F)c1)[C@@H]1OCC(=O)N(C2CC2)[C@H]1c1ccccc1` is 849 s.
